Reference: the CheMixHub viscosity set

Assay: xn = mol fraction of the nth substance listed

NCCCN + CC(O)CO
viscosity [mPa·s], 101.3 kPa
Conditions | 293.15 K | 298.15 K | 303.15 K | 308.15 K | 313.15 K | 318.15 K
x2 = 0.0488 | 2.44 | 2.19 | 1.92 | 1.68 | 1.48 | 1.32
x2 = 0.0977 | 3.15 | 2.8 | 2.43 | 2.08 | 1.82 | 1.58
x2 = 0.1467 | 3.95 | 3.45 | 2.97 | 2.51 | 2.17 | 1.91
x2 = 0.1958 | 5.23 | 4.5 | 3.79 | 3.17 | 2.7 | 2.34
x2 = 0.2451 | 6.85 | 5.81 | 4.87 | 4 | 3.36 | 2.88
x2 = 0.2945 | 9.15 | 7.62 | 6.28 | 5.09 | 4.2 | –
x2 = 0.3441 | 12.3 | 10 | 8.12 | 6.48 | 5.29 | –
x2 = 0.3937 | 17 | 13.6 | 10.8 | 8.39 | 6.74 | –
x2 = 0.4435 | 22.8 | 17.9 | 14 | 10.7 | 8.55 | –
x2 = 0.4934 | 30 | 23.2 | 17.9 | 13.6 | 10.6 | –
x2 = 0.5435 | 38.5 | 29.3 | 22.2 | 16.7 | 12.9 | –
x2 = 0.5937 | 47.4 | 35.8 | 27 | 20.1 | 15.4 | –
x2 = 0.644 | 55.5 | 41.8 | 31.4 | 23.2 | 17.6 | –
x2 = 0.6945 | 62.5 | 46.9 | 35.1 | 25.9 | 19.7 | –
x2 = 0.745 | 67.1 | 50.3 | 37.8 | 27.8 | 21.2 | –
x2 = 0.7958 | 69 | 51.8 | 38.8 | 28.8 | 21.9 | –
x2 = 0.8466 | 68.9 | 51.9 | 39 | 28.9 | 22 | –
x2 = 0.8976 | 66.1 | 50 | 37.7 | 28.1 | 21.5 | –
x2 = 0.9487 | 62.3 | 47.1 | 35.7 | 26.8 | 20.5 | –

COCCOCCOC + CCCO
viscosity [mPa·s]
Conditions | 298.15 K | 308.15 K | 318.15 K
101 kPa, x1 = 0.0121 | 1.856 | 1.451 | –
101 kPa, x1 = 0.0768 | 1.559 | 1.243 | –
101 kPa, x1 = 0.1011 | 1.451 | 1.173 | 0.956
101 kPa, x1 = 0.1288 | 1.399 | 1.144 | –
101 kPa, x1 = 0.1895 | 1.272 | 1.052 | –
101 kPa, x1 = 0.1997 | 1.243 | 1.021 | 0.847
101 kPa, x1 = 0.2359 | 1.213 | 1.004 | –
101 kPa, x1 = 0.2801 | 1.183 | 0.971 | –
101 kPa, x1 = 0.3029 | 1.115 | 0.927 | 0.779
101 kPa, x1 = 0.3162 | 1.133 | 0.951 | –
101 kPa, x1 = 0.3322 | 1.12 | 0.939 | –
101 kPa, x1 = 0.3923 | 1.08 | 0.918 | –
101 kPa, x1 = 0.4025 | 1.046 | 0.878 | 0.743
101 kPa, x1 = 0.4477 | 1.051 | 0.899 | –
101 kPa, x1 = 0.4978 | 1.032 | 0.886 | –
101 kPa, x1 = 0.5004 | 1.01 | 0.852 | 0.729
101 kPa, x1 = 0.5784 | 1.011 | 0.871 | –
101 kPa, x1 = 0.5992 | 0.988 | 0.838 | 0.717
101 kPa, x1 = 0.6325 | 1.003 | 0.854 | –
101 kPa, x1 = 0.6934 | 0.975 | 0.828 | 0.709
101 kPa, x1 = 0.7544 | 0.991 | 0.86 | –
101 kPa, x1 = 0.8004 | 0.971 | 0.825 | 0.709
101 kPa, x1 = 0.813 | 0.991 | 0.862 | –
101 kPa, x1 = 0.8974 | 0.981 | 0.836 | –
101 kPa, x1 = 0.9026 | 0.993 | 0.863 | –
101 kPa, x1 = 0.9638 | 0.996 | 0.867 | –
101 kPa, x2 = 0.0194 | 0.996 | 0.867 | –
101.33 kPa, x1 = 0.0064 | 1.913 | – | –
101.33 kPa, x1 = 0.0122 | 1.881 | – | –
101.33 kPa, x1 = 0.0238 | 1.816 | – | –
101.33 kPa, x1 = 0.0358 | 1.756 | – | –
101.33 kPa, x1 = 0.0546 | 1.671 | – | –
101.33 kPa, x1 = 0.0803 | 1.567 | – | –
101.33 kPa, x1 = 0.1176 | 1.443 | – | –
101.33 kPa, x1 = 0.1632 | 1.333 | – | –
101.33 kPa, x1 = 0.2064 | 1.251 | – | –
101.33 kPa, x1 = 0.2619 | 1.177 | – | –
101.33 kPa, x1 = 0.2976 | 1.14 | – | –
101.33 kPa, x1 = 0.3254 | 1.119 | – | –
101.33 kPa, x1 = 0.3716 | 1.086 | – | –
101.33 kPa, x1 = 0.4168 | 1.065 | – | –
101.33 kPa, x1 = 0.4652 | 1.038 | – | –
101.33 kPa, x1 = 0.5109 | 1.024 | – | –
101.33 kPa, x1 = 0.5509 | 1.009 | – | –
101.33 kPa, x1 = 0.5982 | 0.994 | – | –
101.33 kPa, x1 = 0.6569 | 0.984 | – | –
101.33 kPa, x1 = 0.711 | 0.976 | – | –
101.33 kPa, x1 = 0.7757 | 0.975 | – | –
101.33 kPa, x1 = 0.819 | 0.976 | – | –
101.33 kPa, x1 = 0.8649 | 0.977 | – | –
101.33 kPa, x1 = 0.9094 | 0.984 | – | –
101.33 kPa, x1 = 0.9425 | 0.989 | – | –
101.33 kPa, x1 = 0.9722 | 0.988 | – | –

NCCCN + OCCOCCOCCO
viscosity [mPa·s], 100 kPa
Conditions | 293.15 K | 298.15 K | 303.15 K | 308.15 K | 313.15 K | 318.15 K
x2 = 0.0253 | 2.31 | 2.01 | – | 1.64 | 1.46 | 1.23
x2 = 0.052 | 2.82 | 2.42 | 2.1 | 1.9 | 1.74 | 1.45
x2 = 0.0801 | 3.56 | 3.07 | 2.62 | 2.28 | 2.06 | 1.69
x2 = 0.1098 | 4.41 | 3.74 | 3.15 | 2.72 | 2.47 | 2.02
x2 = 0.1412 | 5.52 | 4.68 | 3.91 | 3.33 | 3 | 2.43
x2 = 0.1746 | 7.09 | 5.97 | 4.92 | 4.16 | 3.72 | 2.99
x2 = 0.21 | 8.97 | 7.46 | 6.09 | 5.1 | 4.54 | 3.69
x2 = 0.2476 | 11.9 | 9.77 | 7.87 | 6.52 | 5.7 | 4.51
x2 = 0.2877 | 15.8 | 12.8 | 10.1 | 8.27 | 7.16 | 5.6
x2 = 0.3305 | 21.6 | 17.1 | 13.3 | 10.7 | 9.13 | 7.02
x2 = 0.3762 | 29.3 | 22.8 | 17.5 | 13.8 | 11.6 | 8.8
x2 = 0.4254 | 38.8 | 29.7 | 22.5 | 17.5 | 14.6 | 11
x2 = 0.4782 | 50.2 | 37.8 | 28.3 | 21.7 | 17.9 | 13.3
x2 = 0.5352 | 59.8 | 44.5 | 33.2 | 25.5 | 20.8 | 15.2
x2 = 0.5969 | 70.2 | 52.2 | 38.6 | 29.2 | 23.7 | 17.3
x2 = 0.6638 | 72.7 | 54.6 | 40.6 | 30.9 | 25.2 | 18.5
x2 = 0.7366 | 72.1 | 54.3 | 40.7 | 31.2 | 25.7 | 19.1
x2 = 0.8162 | 66.3 | 50.6 | 38.4 | 29.7 | 24.7 | 18.6
x2 = 0.9036 | 57.9 | 44.7 | 34.3 | 26.8 | 22.5 | 17.2
